Patent US20170000129A1, “METHOD FOR TREATING MINERAL SLURRIES WITH A BIOCIDE” (priority 2015, published 2017)

Assays:
[1] = system: bacteria from a contaminated kaolin product; assay: Kaolin slurry preservation test, challenge: on day 20 samples inoculated with ~10^5 cfu/ml bacteria from a contaminated kaolin product; type: cell-based
Experimental: (§1) In the comparative testing, dry kaolin was mixed with water to achieve a 65% solid slurry material. This material contained no biocide. The slurry was then split into 200 gram aliquots and dosed with different biocides at different concentration as shown in Tables 1-3. All samples were kept at 50° C. until the end of the testing, which was up to 28 days.
(§2) The protocol for the testing of each sample is as follows: • 1) dosed with a recorded level of biocide; • 2) mixed for 24 hours contact time and plated using standard method agar for bacterial growth; • 3) remixed daily for 1 hour and retested for bacterial growth at Day 3; • 4) remixed daily for 1 hour and retested for bacterial growth at Day 7; • 5) remixed daily for 1 hour and retested for bacterial growth at Day 14; • 6) on day 20, samples were split into two containers: one container was inoculated (or challenged) with ˜10^5 cfu/ml bacteria, the other was left “as treated”, the challenge material was obtained from a contaminated kaolin product and is assumed to be representative of the types of bacteria that are seen in the kaolin industry, and the two sets of samples were prepared for Day 21 testing; • 7) both sets were remixed daily for 1 hour and retested for bacterial growth at Day 21; and • 8) both sets remixed daily for 1 hour and retested for bacterial growth at Day 28.

[2] = system: bacterial growth in kaolin slurry; assay: Kaolin slurry preservation test: biocide-dosed 65% solids slurry plated on standard method agar, samples as treated; type: cell-based, bacteria
Experimental: as §1
A number of different and known biocides were used in the study and they include glutaraldehyde (glute), 1,2 benzithiazolin-3-one (BIT), tetrahydro-3-5-methyl-2H-1,3,5-thiadizine-2-thione (thione), isothiazoline (ISO), bronopol (BNPD) or orthophenyl phenate (OPP). For shorthand purposes, the study refers to the tradename of the biocide, which is found in the above listing of the biocides. Metam sodium is designated as SMDC and MDTCMA is used without change
as §2
Different contact times were used to see how quickly the bacterial population was effected by the biocide.

CN1CSC(=S)N(C)C1 [24% Thione, tetrahydro-3,5-dimethyl-2H-1,3,5-thiadiazine-2-thione, reference compound]
Log Red, 21 day Challenge ([1]; 500 ppm, Table 2): 3
Log Red, 28 day Challenge ([1]; 500 ppm, Table 2): 4
cfu/mL, 21 day Challenge ([1]; 500 ppm, Table 2): 39,000 cfu/mL
cfu/mL, 28 day Challenge ([1]; 500 ppm, Table 2): 3,400 cfu/mL
Log Red, 21 day Challenge ([1]; 500 ppm, Table 3): 5
Log Red, 28 day Challenge ([1]; 500 ppm, Table 3): 5
cfu/mL, 21 day Challenge ([1]; 500 ppm, Table 3): 100 cfu/mL
cfu/mL, 28 day Challenge ([1]; 500 ppm, Table 3): 100 cfu/mL
Log Red, 21 day Challenge ([1]; 1000 ppm, Table 2): 5
Log Red, 28 day Challenge ([1]; 1000 ppm, Table 2): 4
cfu/mL, 21 day Challenge ([1]; 1000 ppm, Table 2): 900 cfu/mL
cfu/mL, 28 day Challenge ([1]; 1000 ppm, Table 2): 1,500 cfu/mL
Log Red, 21 day Challenge ([1]; 1000 ppm, Table 3): 5
Log Red, 28 day Challenge ([1]; 1000 ppm, Table 3): 5
cfu/mL, 21 day Challenge ([1]; 1000 ppm, Table 3): 100 cfu/mL
cfu/mL, 28 day Challenge ([1]; 1000 ppm, Table 3): 100 cfu/mL
biocide effectiveness after inoculation, overall result of the studies [1]: most effective biocides
Log Red, contact time 1 day ([2]; 500 ppm, Table 2): 0
Log Red, contact time 3 day ([2]; 500 ppm, Table 2): 3
Log Red, contact time 7 day ([2]; 500 ppm, Table 2): 4
Log Red, contact time 14 day ([2]; 500 ppm, Table 2): 4
Log Red, contact time 21 day ([2]; 500 ppm, Table 2): 5
Log Red, contact time 28 day ([2]; 500 ppm, Table 2): 5
cfu/mL, contact time 1 day ([2]; 500 ppm, Table 2): 13,340,000 cfu/mL
cfu/mL, contact time 3 day ([2]; 500 ppm, Table 2): 11,000 cfu/mL
cfu/mL, contact time 7 day ([2]; 500 ppm, Table 2): 5,600 cfu/mL
cfu/mL, contact time 14 day ([2]; 500 ppm, Table 2): 2,100 cfu/mL
cfu/mL, contact time 21 day ([2]; 500 ppm, Table 2): 1,100 cfu/mL
cfu/mL, contact time 28 day ([2]; 500 ppm, Table 2): 800 cfu/mL
Log Red, contact time 1 day ([2]; 500 ppm, Table 3): 2
Log Red, contact time 3 day ([2]; 500 ppm, Table 3): 2
Log Red, contact time 7 day ([2]; 500 ppm, Table 3): 2
Log Red, contact time 14 day ([2]; 500 ppm, Table 3): 3
Log Red, contact time 21 day ([2]; 500 ppm, Table 3): 2
Log Red, contact time 28 day ([2]; 500 ppm, Table 3): 2
cfu/mL, contact time 1 day ([2]; 500 ppm, Table 3): 3,300 cfu/mL
cfu/mL, contact time 3 day ([2]; 500 ppm, Table 3): 100 cfu/mL
cfu/mL, contact time 7 day ([2]; 500 ppm, Table 3): 100 cfu/mL
cfu/mL, contact time 14 day ([2]; 500 ppm, Table 3): 100 cfu/mL
cfu/mL, contact time 21 day ([2]; 500 ppm, Table 3): 100 cfu/mL
cfu/mL, contact time 28 day ([2]; 500 ppm, Table 3): 100 cfu/mL
Log Red, contact time 1 day ([2]; 1000 ppm, Table 2): 1
Log Red, contact time 3 day ([2]; 1000 ppm, Table 2): 4
Log Red, contact time 7 day ([2]; 1000 ppm, Table 2): 4
Log Red, contact time 14 day ([2]; 1000 ppm, Table 2): 5
Log Red, contact time 21 day ([2]; 1000 ppm, Table 2): 5
Log Red, contact time 28 day ([2]; 1000 ppm, Table 2): 5
cfu/mL, contact time 1 day ([2]; 1000 ppm, Table 2): 6,670,000 cfu/mL
cfu/mL, contact time 3 day ([2]; 1000 ppm, Table 2): 6,800 cfu/mL
cfu/mL, contact time 7 day ([2]; 1000 ppm, Table 2): 2,600 cfu/mL
cfu/mL, contact time 14 day ([2]; 1000 ppm, Table 2): 1,200 cfu/mL
cfu/mL, contact time 21 day ([2]; 1000 ppm, Table 2): 300 cfu/mL
cfu/mL, contact time 28 day ([2]; 1000 ppm, Table 2): 200 cfu/mL
Log Red, contact time 1 day ([2]; 1000 ppm, Table 3): 3
Log Red, contact time 3 day ([2]; 1000 ppm, Table 3): 2
Log Red, contact time 7 day ([2]; 1000 ppm, Table 3): 2
Log Red, contact time 14 day ([2]; 1000 ppm, Table 3): 3
Log Red, contact time 21 day ([2]; 1000 ppm, Table 3): 2
Log Red, contact time 28 day ([2]; 1000 ppm, Table 3): 2
cfu/mL, contact time 1 day ([2]; 1000 ppm, Table 3): 100 cfu/mL
cfu/mL, contact time 3 day ([2]; 1000 ppm, Table 3): 100 cfu/mL
cfu/mL, contact time 7 day ([2]; 1000 ppm, Table 3): 100 cfu/mL
cfu/mL, contact time 14 day ([2]; 1000 ppm, Table 3): 100 cfu/mL
cfu/mL, contact time 21 day ([2]; 1000 ppm, Table 3): 100 cfu/mL
cfu/mL, contact time 28 day ([2]; 1000 ppm, Table 3): 100 cfu/mL

CN.CNC(=S)S [MDTCMA, methylammonium monomethyldithiocarbamate]
Log Red, 21 day Challenge ([1]; 500 ppm, Table 2): 3
Log Red, 28 day Challenge ([1]; 500 ppm, Table 2): 3
cfu/mL, 21 day Challenge ([1]; 500 ppm, Table 2): 73,000 cfu/mL
cfu/mL, 28 day Challenge ([1]; 500 ppm, Table 2): 65,000 cfu/mL
Log Red, 21 day Challenge ([1]; 1000 ppm, Table 2): 3
Log Red, 28 day Challenge ([1]; 1000 ppm, Table 2): 3
cfu/mL, 21 day Challenge ([1]; 1000 ppm, Table 2): 52,000 cfu/mL
cfu/mL, 28 day Challenge ([1]; 1000 ppm, Table 2): 32,000 cfu/mL
Log Red, 21 day Challenge ([1]; 1000 ppm, Table 3): 2
Log Red, 28 day Challenge ([1]; 1000 ppm, Table 3): 1
cfu/mL, 21 day Challenge ([1]; 1000 ppm, Table 3): 196,000 cfu/mL
cfu/mL, 28 day Challenge ([1]; 1000 ppm, Table 3): 3,680,000 cfu/mL
Log Red, 21 day Challenge ([1]; 1500 ppm, Table 3): 3
Log Red, 28 day Challenge ([1]; 1500 ppm, Table 3): 1
cfu/mL, 21 day Challenge ([1]; 1500 ppm, Table 3): 18,200 cfu/mL
cfu/mL, 28 day Challenge ([1]; 1500 ppm, Table 3): 2,300,000 cfu/mL
biocide effectiveness in challenge testing ([1]; Table 3, challenge testing): still performed adequately
biocide effectiveness after inoculation, overall result of the studies [1]: effective biocide
Log Red, contact time 1 day ([2]; 500 ppm, Table 1): 0
Log Red, contact time 3 day ([2]; 500 ppm, Table 1): 1
Log Red, contact time 7 day ([2]; 500 ppm, Table 1): 3
cfu/mL, contact time 1 day ([2]; 500 ppm, Table 1): 13,140,000 cfu/mL
cfu/mL, contact time 3 day ([2]; 500 ppm, Table 1): 1,880,000 cfu/mL
cfu/mL, contact time 7 day ([2]; 500 ppm, Table 1): 40,000 cfu/mL
performance against the BIT biocide when measuring log reduction ([2]; 500 ppm, Table 1): performed at least as well as the BIT biocide
Log Red, contact time 1 day ([2]; 500 ppm, Table 2): 0
Log Red, contact time 3 day ([2]; 500 ppm, Table 2): 1
Log Red, contact time 7 day ([2]; 500 ppm, Table 2): 4
Log Red, contact time 14 day ([2]; 500 ppm, Table 2): 4
Log Red, contact time 21 day ([2]; 500 ppm, Table 2): 5
Log Red, contact time 28 day ([2]; 500 ppm, Table 2): 4
cfu/mL, contact time 1 day ([2]; 500 ppm, Table 2): 18,840,000 cfu/mL
cfu/mL, contact time 3 day ([2]; 500 ppm, Table 2): 1,960,000 cfu/mL
cfu/mL, contact time 7 day ([2]; 500 ppm, Table 2): 5,600 cfu/mL
cfu/mL, contact time 14 day ([2]; 500 ppm, Table 2): 3,100 cfu/mL
cfu/mL, contact time 21 day ([2]; 500 ppm, Table 2): 1,800 cfu/mL
cfu/mL, contact time 28 day ([2]; 500 ppm, Table 2): 2,500 cfu/mL
Log Red, contact time 1 day ([2]; 1000 ppm, Table 1): 1
Log Red, contact time 3 day ([2]; 1000 ppm, Table 1): 2
Log Red, contact time 7 day ([2]; 1000 ppm, Table 1): 5
cfu/mL, contact time 1 day ([2]; 1000 ppm, Table 1): 7,060,000 cfu/mL
cfu/mL, contact time 3 day ([2]; 1000 ppm, Table 1): 1,680,000 cfu/mL
cfu/mL, contact time 7 day ([2]; 1000 ppm, Table 1): 1,000 cfu/mL
performance against the BIT biocide when measuring log reduction ([2]; 1000 ppm, Table 1): far superior
Log Red, contact time 1 day ([2]; 1000 ppm, Table 2): 0
Log Red, contact time 3 day ([2]; 1000 ppm, Table 2): 4
Log Red, contact time 7 day ([2]; 1000 ppm, Table 2): 4
Log Red, contact time 14 day ([2]; 1000 ppm, Table 2): 4
Log Red, contact time 21 day ([2]; 1000 ppm, Table 2): 5
Log Red, contact time 28 day ([2]; 1000 ppm, Table 2): 4
cfu/mL, contact time 1 day ([2]; 1000 ppm, Table 2): 14,520,000 cfu/mL
cfu/mL, contact time 3 day ([2]; 1000 ppm, Table 2): 7,000 cfu/mL
cfu/mL, contact time 7 day ([2]; 1000 ppm, Table 2): 3,200 cfu/mL
cfu/mL, contact time 14 day ([2]; 1000 ppm, Table 2): 2,500 cfu/mL
cfu/mL, contact time 21 day ([2]; 1000 ppm, Table 2): 1,100 cfu/mL
cfu/mL, contact time 28 day ([2]; 1000 ppm, Table 2): 1,700 cfu/mL
Log Red, contact time 1 day ([2]; 1000 ppm, Table 3): 3
Log Red, contact time 3 day ([2]; 1000 ppm, Table 3): 2
Log Red, contact time 7 day ([2]; 1000 ppm, Table 3): 2
Log Red, contact time 14 day ([2]; 1000 ppm, Table 3): 3
Log Red, contact time 21 day ([2]; 1000 ppm, Table 3): 2
Log Red, contact time 28 day ([2]; 1000 ppm, Table 3): 2
cfu/mL, contact time 1 day ([2]; 1000 ppm, Table 3): 100 cfu/mL
cfu/mL, contact time 3 day ([2]; 1000 ppm, Table 3): 100 cfu/mL
cfu/mL, contact time 7 day ([2]; 1000 ppm, Table 3): 100 cfu/mL
cfu/mL, contact time 14 day ([2]; 1000 ppm, Table 3): 100 cfu/mL
cfu/mL, contact time 21 day ([2]; 1000 ppm, Table 3): 100 cfu/mL
cfu/mL, contact time 28 day ([2]; 1000 ppm, Table 3): 100 cfu/mL
Log Red, contact time 1 day ([2]; 1500 ppm, Table 3): 3
Log Red, contact time 3 day ([2]; 1500 ppm, Table 3): 2
Log Red, contact time 7 day ([2]; 1500 ppm, Table 3): 2
Log Red, contact time 14 day ([2]; 1500 ppm, Table 3): 3
Log Red, contact time 21 day ([2]; 1500 ppm, Table 3): 2
Log Red, contact time 28 day ([2]; 1500 ppm, Table 3): 2
cfu/mL, contact time 1 day ([2]; 1500 ppm, Table 3): 100 cfu/mL
cfu/mL, contact time 3 day ([2]; 1500 ppm, Table 3): 100 cfu/mL
cfu/mL, contact time 7 day ([2]; 1500 ppm, Table 3): 100 cfu/mL
cfu/mL, contact time 14 day ([2]; 1500 ppm, Table 3): 100 cfu/mL
cfu/mL, contact time 21 day ([2]; 1500 ppm, Table 3): 100 cfu/mL
cfu/mL, contact time 28 day ([2]; 1500 ppm, Table 3): 100 cfu/mL
biocide efficacy compared with known biocides ([2]; Table 2, up to 28 days): comparable biocide efficacy as compared to known biocides
biocide effectiveness compared with thione ([2]; Table 3, up to the 28 day testing, not challenge testing, 1000 and 1500 ppm): performed on a par with the thione
